In PMC11237924, “A neutral invertase controls cell division besides hydrolysis of sucrose for nutrition during germination and seed setting in rice” (iScience, 2024):
Changes are numbered by the printed parent chain.

B1: OsNIN8 (MBP-OsNIN8), neutral invertase 8 (Oryza sativa Japonica Group) (protein)
chain: MELAVGAGGMRRSASHTSLSESDDFDLSRLLNKPRINVERQRSFDDRSLSDVSYSGGGHGGTRGGFDGMYSPGGGLRSLVGTPASSALHSFEPHPIVGDAWEALRRSLVFFRGQPLGTIAAFDHASEEVLNYDQVFVRDFVPSALAFLMNGEPEIVRHFLLKTLLLQGWEKKVDRFKLGEGAMPASFKVLHDSKKGVDTLHADFGESAIGRVAPVDSGFWWIILLRAYTKSTGDLTLAETPECQKGMRLILSLCLSEGFDTFPTLLCADGCCMIDRRMGVYGYPIEIQALFFMALRCALQLLKHDNEGKEFVERIATRLHALSYHMRSYYWLDFQQLNDIYRYKTEEYSHTAVNKFNVIPDSIPDWLFDFMPCQGGFFIGNVSPARMDFRWFALGNMIAILSSLATPEQSTAIMDLIEERWEELIGEMPLKICYPAIENHEWRIVTGCDPKNTRWSYHNGGSWPVLLWLLTAACIKTGRPQIARRAIDLAERRLLKDGWPEYYDGKLGRYVGKQARKFQTWSIAGYLVAKMMLEDPSHLGMISLEEDKAMKPVLKRSASWTN
notes: N-terminal MBP fusion (pETMALc-H), tag kept, expressed in E. coli BL21(DE3), amylose resin purified

How the values were obtained:
[1] = target: T1, OsNIN8 (MBP-OsNIN8), neutral invertase 8 (Oryza sativa, UniProt Q69T31, D275A); test: ITC incremental titration; type: binding; conditions: 25 °C, 0.1 mM protein, 10 mM sucrose in syringe; catalytic-residue mutant
T1 construct: gene CINV1; N-terminal MBP fusion (pETMALc-H), tag kept, expressed in E. coli BL21(DE3), amylose resin purified
T1 sequence (Q69T31 1-562 D275A): B1 chain with D275A

[2] = target: T2, OsNIN8 (MBP-OsNIN8), neutral invertase 8 (Oryza sativa, UniProt Q69T31, G461R); test: pulldown on amylose magnetic beads with GC-TOF MS; ITC titration; type: binding; conditions: 50 mM potassium phosphate pH 6.4, 25 °C; OsNIN8m, retains residual sucrose hydrolysis
T2 construct: gene CINV1; N-terminal MBP fusion (pETMALc-H), tag kept, expressed in E. coli BL21(DE3), amylose resin purified
T2 sequence (Q69T31 1-562 G461R): B1 chain with G461R

[3] = target: T3, OsNIN8 (MBP-OsNIN8), neutral invertase 8 (Oryza sativa, UniProt Q69T31, D275A/E501A); test: ITC incremental titration; type: binding; conditions: 25 °C, 0.1 mM protein, 10 mM sucrose in syringe; catalytic-residue mutant
T3 construct: gene CINV1; N-terminal MBP fusion (pETMALc-H), tag kept, expressed in E. coli BL21(DE3), amylose resin purified
T3 sequence (Q69T31 1-562 D275A/E501A): B1 chain with D275A, E501A

[4] = target: T4, OsNIN8 (MBP-OsNIN8), neutral invertase 8 (Oryza sativa, UniProt Q69T31, E501A); test: ITC incremental titration; type: binding; conditions: 25 °C, 0.1 mM protein, 10 mM sucrose in syringe; catalytic-residue mutant
T4 construct: gene CINV1; N-terminal MBP fusion (pETMALc-H), tag kept, expressed in E. coli BL21(DE3), amylose resin purified
T4 sequence (Q69T31 1-562 E501A): B1 chain with E501A

[5] = substrate: OC[C@H]1O[C@@](CO)(O[C@H]2O[C@H](CO)[C@@H](O)[C@H](O)[C@H]2O)[C@@H](O)[C@@H]1O; test: purified protein; type: biochemical, Oryza sativa; conditions: 50 mM potassium phosphate pH 6.4, fit over 0-20 mM sucrose (substrate inhibition above 20 mM)

Row | Molecule | ITC incremental titration [1] | pulldown on amylose magnetic beads with GC-TOF MS; ITC titration [2] | ITC incremental titration [3] | ITC incremental titration [4] | Km [5] [µM]
1 | OC[C@H]1O[C@@](CO)(O[C@H]2O[C@H](CO)[C@@H](O)[C@H](O)[C@H]2O)[C@@H](O)[C@@H]1O [Sucrose] | all had not hydrolytic activity on sucrose, showed their bindings to sucrose were exotherm | OsNIN8m bound more sucrose than OsNIN8 did | all had not hydrolytic activity on sucrose, showed their bindings to sucrose were exotherm | all had not hydrolytic activity on sucrose, showed their bindings to sucrose were exotherm | 
2 | B1 |  |  |  |  | 2718 ± 347
